Patent publication EP2316926B1, “Enantioselective production of alpha-hydroxy carbonyl compounds” (priority 2009, dated 2011)

Key:
Format in all cases: biochemical
Gox0644 [1] = target: T1, Gox0644 (Gluconobacter oxydans, UniProt Q5FT75); experiment: Kinetic constants from purified enzyme by Lineweaver-Burk plots
Description: (§1) Determination of pH and temperature optima and enzyme kinetics: The optimum pH for enzyme activities was determined by a modified method of Salusjärvi, T. et al., Appl. Microbiol. Biotechnol. 65:306-314 (2004) using the following buffer system (50 mM final concentration each): sodium acetate pH 4.5 - 6.5, potassium phosphate pH 6.5 - 8.0, Tris-HCl pH 8.0 - 10. Temperature optima for the biocatalysts were determined under standard reaction conditions at temperatures ranging from 20 - 80 °C. The Michaelis constant (Km) for the proteins was determined from purified enzyme by Lineweaver-Burk plots. Assays were performed at optimum pH for each enzyme and at 30 °C using the best substrate and a targeted substrate. The Km for each substrate was calculated using concentrations of 0.0025 to 10 mM, and the Km NAD(P)H and NAD(P) was calculated using concentrations of 0.01 to 0.5 mM
(§2) 2.9 Kinetic parameters of the keto carbonyl reductases: Kinetic constants were determined from purified enzyme by Lineweaver-Burk plots. The Km and Vmax values for the substrates were calculated using concentrations of 0.025 to 10 mM. The optimal pH values and temperatures for enzyme activities are also shown in Tab. 8. Table 8: Summary of kinetic parameters

Gox1615 = target: T2, Gox1615 (Gluconobacter oxydans, UniProt Q5FQJ0); experiment: as above
T2 sequence (Q5FQJ0 1-332): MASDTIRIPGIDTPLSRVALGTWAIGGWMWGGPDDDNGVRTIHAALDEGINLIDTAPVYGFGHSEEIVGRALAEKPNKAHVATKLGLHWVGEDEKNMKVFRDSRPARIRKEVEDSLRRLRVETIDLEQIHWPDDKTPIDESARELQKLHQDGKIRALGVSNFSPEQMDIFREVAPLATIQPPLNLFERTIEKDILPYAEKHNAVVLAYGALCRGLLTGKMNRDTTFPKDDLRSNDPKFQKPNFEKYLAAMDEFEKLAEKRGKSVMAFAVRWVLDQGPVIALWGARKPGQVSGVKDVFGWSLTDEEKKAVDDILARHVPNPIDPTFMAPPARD
Description: as §1, §2

Gox0644 [2] = target: T1, Gox0644; experiment: NADPH-dependent α-ketocarbonyl reductase activity assay (rate of decrease of NADPH at 340 nm); conditions: Table 3; 10 mM substrate, 40 mM K-phosphate buffer pH 7.0, 0.05 mM NAD(P)H, 30 °C; U/mg = µmol x min^-1 x mg protein^-1
Description: Reactions were induced by addition of enzyme or substrate. One unit was defined as the amount of enzyme activity catalyzing the conversion of 1 µmol of pyridine nucleotide per min at 30 °C. NMR Analysis of Biotransformation Products: Biotransformations were extracted with equal volumes of CDCl3. and ^13C NMR spectra were recorded on a Bruker Avance 300 DPX spectrometer operating at 300 MHz for ^1H NMR and at 75 MHz for ^13C NMR, respectively.
Reactions were induced by addition of enzyme or substrate. One unit of activity was defined as the amount of enzyme activity catalyzing the conversion of 1 µmol of pyridine nucleotide per min at 30 °C.
The standard reaction mixture (1 ml) for the reduction reactions of substrates contained 10 mM substrate, 40 mM potassium phosphate buffer (K-phosphate buffer) pH 7.0, 0.05 mM NAD(P)H, and the enzyme unless otherwise noted. Reactions were induced by addition of enzyme or substrate. One unit of activity was defined as the amount of enzyme activity catalyzing the conversion of 1 µmol of pyridine nucleotide per min at 30 °C. […] Table 3: Enzymatic activities with α-diketones, α-ketoaldehydes and α-ketoesters

## CCC(=O)C(C)=O [2,3-pentanedione]
Gox0644 [1]
  Vmax: 70 U/mg protein
Gox1615
  Vmax: 7.0 U/mg protein
Gox0644 [2]
  Gox0644 U/mg*: 69.6 U/mg
